# How the values were obtained:
# [1] = Particle size by laser light diffraction (Sympatec Dry Dispersion Size Analyzer); format: physicochemical; design: d[v,10] / d[v,50] / d[v,90]: unit not given here; conditions: for Span: Span=[d(v,0.9)-d(v,0.1)]/d(v,0.5); for d[v,10] / d[v,50] / d[v,90]: average of triplicate
# Procedure: The particle size was determined by Laser light diffraction using the Sympatec Dry Dispersion Size Analyzer (Clausthal-Zellerfeld, Germany).
# The powder was dispersed for two measurement conditions at an air pressure of 1 and 4 bar.
# The average d[v,10], d[v,50], d[v,90] values were calculated from triplicate measurements. The span was calculated using the following equation: Span=[d(v,0.9)−d(v,0.1)]/d(v,0.5)
# [2] = Physical stability (particle size growth) upon storage; format: physicochemical; conditions: at least three months, ambient conditions (22±2° C. and 60% relative humidity)
# Source text: The physical stability shall be measured by using a Sympatec Dry Dispersion Size Analyzer, while the chemical stability shall be determined according to known method such as HPLC.
smiles,measurement,setting,value
"C[N+]1(C)CCC(OC(=O)C(O)(c2ccccc2)C2CCCC2)C1.[Br-] (racemic) [Example 1, (3S,2′R), (3R,2′S)-3-[(Cyclopentylhydroxyphenylacetyl)oxy]-1,1-dimethylpyrrolidinium bromide racemic mixture]",Span,[1]; dispersion pressure 1.0 bar,1.50
same,"d[v,10]",[1]; dispersion pressure 1.0 bar,0.81
same,"d[v,50]",[1]; dispersion pressure 1.0 bar,4.17
same,"d[v,90]",[1]; dispersion pressure 1.0 bar,7.05
same,Span,[1]; dispersion pressure 4.0 bar,2.19
same,"d[v,10]",[1]; dispersion pressure 4.0 bar,0.43
same,"d[v,50]",[1]; dispersion pressure 4.0 bar,2.29
same,"d[v,90]",[1]; dispersion pressure 4.0 bar,5.45
same,growth of the particle size upon storage,[2],No significant growth of the particle size

# — patent publication US9925168B2, “Preparation of micronized particles of an antimuscarinic compound by hydrodynamic cavitation” (CHIESI FARMACEUTICI S.P.A., priority 2016, dated 2018)
